# From patent publication US6713506B2, “Tea polyphenol esters and analogs thereof for cancer prevention and treatment” (University of South Florida, priority 2000, dated 2004)
# Entries after “also recorded” stand apart in the source; their conditions may differ.
# Columns and labels:
# [1] = molecular target: chymotrypsin-like activity of purified 20S proteasome (UniProt Q9P992); type: biochemical
# Procedure: (§1) FIG. 8. […] A). […] Initially, 0.5 μg of purified 20S proteasome is incubated with 20 μM of a fluorogenic peptide substrate, Suc-Leu-Leu-Val-Tyr-AMC, for 30 min at 37° C. in 100 μl of assay buffer (20 mM Tris-HCl, pH 8.0) with various concentrations of tannic acid. After incubation, the reaction mixture is diluted to 200 μl with the assay buffer, followed by measurement of the hydrolyzed 7-amido-4-methyl-coumarin (AMC) groups using a fluorometer with an excitation filter of 380 nm and an emission filter of 460 nm. B). […] Tannic acid (0.3 μg/ml) and Glucose (180 μg/ml) are used in the proteasome activity assay as described above. C). […] Purified calpain I (3 μg) protein is incubated with 40 μM of a fluorogenic peptide substrate, Suc-Leu-Tyr-AMC, for 30 min at 37° C. in 100 μl of assay buffer (50 mM Tris-HCl, pH 7.5, containing 50 mM NaCl, 1 mM EDTA, 1 mM EGTA, 5 mM β-Mercaptoethanol, 5 mM CaCl2, and 0.1% CHAPS) in the absence (control) or presence of 5 μg/ml of tannic acid or 0.18 μg/ml of calpeptin (calpain inhibitor).
# Inhibition of the proteasome activity in vitro by tea polyphenols—To measure the 20S proteasome chymotrypsin-like activity, 0.5 μg of a purified 20S proteasome (Calbiochem) is incubated with 20 μM of a fluorogenic peptide substrate, Suc-Leu-Leu-Val-Tyr-AMC (Calbiochem), for 30 min at 37° C. in 100 μl of assay buffer (20 mM Tris-HCl, pH 8.0), with or without tea polyphenols (purity >95%; Sigma) or tea extract. After incubation, the reaction mixture is diluted to 200 μl with the assay buffer, followed by measurement of the hydrolyzed 7-amido-4-methyl-coumarin (AMC) groups using a VersaFluor™ Fluorometer with an excitation filter of 380 nm and an emission filter of 460 nm (Bio-Rad).
# purified calpain I = molecular target: T1, purified calpain I (Homo sapiens, UniProt P07384); experiment: Calpain I activity assay; type: biochemical; settings: for inhibition of purified calpain I activity (in words): 10 μM, FIG. 16A
# T1 construct: 3 μg purified calpain I (Human Erythrocytes, Calbiochem) is incubated; purchased Calbiochem; host or cells: human erythrocytes (tissue-purified)
# T1 sequence (P07384 1-714): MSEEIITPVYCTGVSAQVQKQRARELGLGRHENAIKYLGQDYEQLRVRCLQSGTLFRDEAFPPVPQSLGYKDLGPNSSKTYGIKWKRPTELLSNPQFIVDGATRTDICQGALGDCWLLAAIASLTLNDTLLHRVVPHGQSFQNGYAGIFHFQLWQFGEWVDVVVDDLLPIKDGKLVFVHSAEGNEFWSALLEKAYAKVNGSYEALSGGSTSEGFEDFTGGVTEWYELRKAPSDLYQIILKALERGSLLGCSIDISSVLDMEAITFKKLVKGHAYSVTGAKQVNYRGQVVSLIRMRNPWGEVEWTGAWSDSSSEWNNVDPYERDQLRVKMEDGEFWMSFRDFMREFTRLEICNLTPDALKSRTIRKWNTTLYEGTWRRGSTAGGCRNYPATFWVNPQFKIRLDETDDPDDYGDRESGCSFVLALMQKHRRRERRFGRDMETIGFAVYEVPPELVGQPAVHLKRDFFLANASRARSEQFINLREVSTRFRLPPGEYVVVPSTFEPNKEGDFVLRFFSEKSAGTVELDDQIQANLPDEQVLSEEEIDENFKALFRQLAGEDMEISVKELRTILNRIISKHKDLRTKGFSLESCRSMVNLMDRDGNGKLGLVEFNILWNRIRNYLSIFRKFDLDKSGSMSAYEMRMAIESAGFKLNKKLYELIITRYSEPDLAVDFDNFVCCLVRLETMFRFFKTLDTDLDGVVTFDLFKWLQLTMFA
# T1 sequence (P04632 1-268 partner): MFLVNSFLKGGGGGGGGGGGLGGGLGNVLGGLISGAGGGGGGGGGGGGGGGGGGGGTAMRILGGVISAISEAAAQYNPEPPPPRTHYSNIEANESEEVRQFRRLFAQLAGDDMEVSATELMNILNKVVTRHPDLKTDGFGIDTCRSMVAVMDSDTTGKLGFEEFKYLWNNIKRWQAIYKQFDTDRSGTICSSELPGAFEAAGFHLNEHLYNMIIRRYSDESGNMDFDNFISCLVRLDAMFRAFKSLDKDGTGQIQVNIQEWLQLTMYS
# Procedure: as §1
# Jurkat T cells = experiment: Cell cycle analysis by flow cytometry, Jurkat T cells; type: cell-based, human
# Procedure: FIG. 6. Cell cycle analysis. Asynchronous Jurkat, LNCaP, WI-38, and VA-13 cells are treated with 10 μM EGCG and harvested at the time points indicated. Cells are prepared and analyzed by flow cytometry as described in the The Materials and Methods section of Example 1. Growth arrest is determined by the increase in the percentage of G1 population.
# FIG. 12. […] Jurkat T cells are treated with either 50 μg/ml of tannic acid or buffer (−) for up to 48 h. The harvested cells are fixed, resuspended in 1 ml of PBS containing 50 μg/ml of propidium iodide (PI), 100 U/ml of RNase A, and 1 mg/ml of glucose, and analyzed by flow cytometry. Percentages of cells containing G1 S, G2 and M DNA content are indicated. Percentages of the apoptotic cell population containing sub-G1 DNA content is also indicated. Note: tannic acid treatment results in ˜23% increase in G1 and ˜14% increase in apoptotic cell populations.
# Cell cycle analysis—Cell cycle analysis based on DNA content is performed as follows. Cells are harvested, counted and washed twice with PBS. Cells (5×10^6 ) are then suspended in 0.5 ml PBS, pipetted and fixed in 5 ml of 70% ethanol for at least 2 h at −20° C. Cells are centrifuged, resuspended in 1 ml of propidium iodide staining solution (50 μg propidium iodide, 100 units RNase A and 1 mg glucose per ml PBS) and incubated at room temperature for 30 min. The cells are then analyzed with FACScan (Becton Dickinson Immunocytometry, CA.), ModFit LT and WinMDI V.2.8 cell cycle analysis software (Verity Software, Topsham, Me.). The cell cycle distribution is shown as the percentage of cells containing G1, S, G2, and M DNA judged by propidium iodide staining.
# [2] = tannic acid 50 μg/ml, up to 48 h
# Sequence of chymotrypsin-like activity of purified 20S proteasome (Q9P992 whole entry): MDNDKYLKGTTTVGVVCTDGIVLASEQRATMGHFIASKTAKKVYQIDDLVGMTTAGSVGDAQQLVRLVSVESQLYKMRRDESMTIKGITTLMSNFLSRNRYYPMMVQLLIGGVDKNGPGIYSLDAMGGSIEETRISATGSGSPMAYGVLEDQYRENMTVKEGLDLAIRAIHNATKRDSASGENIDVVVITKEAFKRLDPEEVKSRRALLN
smiles,measurement,setting,value
"Oc1cc(O)c2c(c1)O[C@H](c1cc(O)c(O)c(O)c1)[C@H](O)C2 [EGC, (−)-epigallocatechin]",fold less potent than EGCG,[1]; ratio of IC50 to EGCG,"14,000 fold"
same,inhibition of purified calpain I activity (in words),purified calpain I,Neither EGCG nor EGC at 10 μM inhibits
"O=C(O[C@@H]1Cc2c(O)cc(O)cc2O[C@@H]1c1cc(O)c(O)c(O)c1)c1cc(O)c(O)c(O)c1 [EGCG, (−)-epigallocatechin-3-gallate]",increase in G1 population,"Jurkat T cells; 10 μM, 24 h",10%
same,IC50,[1]; read-out: IC50 towards the chymotrypsin-like activity of purified 20S proteasome,86 nM
same,inhibition of purified calpain I activity (in words),purified calpain I,Neither EGCG nor EGC at 10 μM inhibits
same,inhibition of purified calpain activity (in words),"purified calpain I; FIG. 3B: EGCG 10 μM, calpeptin 1 μM","but not EGCG, is able to inhibit"
O=C(OC[C@H]1O[C@@H](OC(=O)c2cc(O)c(O)c(OC(=O)c3cc(O)c(O)c(O)c3)c2)[C@H](OC(=O)c2cc(O)c(O)c(OC(=O)c3cc(O)c(O)c(O)c3)c2)[C@@H](OC(=O)c2cc(O)c(O)c(OC(=O)c3cc(O)c(O)c(O)c3)c2)[C@@H]1OC(=O)c1cc(O)c(O)c(OC(=O)c2cc(O)c(O)c(O)c2)c1)c1cc(O)c(O)c(OC(=O)c2cc(O)c(O)c(O)c2)c1 [tannic acid],G1 arrest and apoptosis (in words),Jurkat T cells; tannic acid,induces G1 arrest and apoptosis
same,increase in G1 cell population,Jurkat T cells; [2],~23%
same,increase in apoptotic cell population (sub-G1),Jurkat T cells; [2],~14%
same,inhibition of purified 20S proteasome chymotrypsin-like activity (in words),[1],concentration-dependent; also recorded: inhibited
same,inhibition of chymotrypsin-like activity of the proteasome (in words),"[1]; tannic acid 0.3 μg/ml, glucose 180 μg/ml",inhibited
same,inhibition of calpain activity (in words),purified calpain I; tannic acid 5 μg/ml,does not inhibit
